Target: T1, human corticosteroid-binding globulin (CBG; SERPINA6) (Homo sapiens, UniProt P08185)
T1 construct: RCL intact; no tag
T1 sequence (P08185 23-405): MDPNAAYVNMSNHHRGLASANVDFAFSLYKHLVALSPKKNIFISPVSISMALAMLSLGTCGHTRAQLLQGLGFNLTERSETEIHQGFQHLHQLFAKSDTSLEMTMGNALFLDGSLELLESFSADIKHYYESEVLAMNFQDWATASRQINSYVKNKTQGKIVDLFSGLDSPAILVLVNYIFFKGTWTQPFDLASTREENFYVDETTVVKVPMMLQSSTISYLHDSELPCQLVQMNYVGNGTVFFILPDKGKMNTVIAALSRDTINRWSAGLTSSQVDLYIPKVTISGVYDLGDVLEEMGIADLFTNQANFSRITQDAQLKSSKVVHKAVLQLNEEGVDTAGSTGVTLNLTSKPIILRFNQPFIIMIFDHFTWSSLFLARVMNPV
Assay: [3H]-corticosterone saturation binding, Scatchard analysis
Conditions: labelled compound; steroid-affinity purified plasma CBG, before 9G12 immunoprecipitation, ELISA-discordant sample; unreliable: unit doubtful, see left_out

C[C@]12C[C@H](O)[C@H]3[C@@H](CCC4=CC(=O)CC[C@@]43C)[C@@H]1CC[C@@H]2C(=O)CO [corticosterone]
Kd: 1.72 nM

From article PMC6347282, “Neutrophil elastase-cleaved corticosteroid-binding globulin is absent in human plasma” (The Journal of Endocrinology, 2018)
